# Data: US20220251124A1, “3,5-BIS(PHENYL)-1H-HETEROARYL DERIVATIVES AS MEDICAMENTS” (INSTITUTE OF BIOTECHNOLOGY CAS, V.V.I., priority 2019, published 2022)
# Like-named read-outs stand apart in the source and are kept apart here.
# Key:
# Type in all cases: cell-based
# MCF7 cells = assay: crystal violet assay, cellular viability (cytostatic and cytotoxic effect), 48 hrs; details: for IC50: MCF7 (parental/control), crystal violet, read-out: IC50
# Description: (§1) Compound 1 and a comparative compound deferasirox (DFX) were tested in their efficacy to kill/suppress proliferation of malignant breast cancer MCF7 cells representing estrogen-dependent type of breast cancer. Briefly, 10.000 cells per well were seeded in a 96-well plate on one day and the next day the tested compounds were added and incubated with the cells for 48 hrs. The cells were then fixed with 4% paraformaldehyde, stained with 0.05% crystal violet, washed with PBS, and solubilized in 1% SDS. The absorbance of the plate at 595 nm was then measured, quantifying the number of viable cells.
# MDA-MB-231 cells = assay: crystal violet assay, cellular viability, 48 hrs; details: for IC50: MDA-MB-231, crystal violet, read-out: IC50
# Description: as §1
# Compound 1 and the comparative compound deferasirox were tested in their efficacy to kill/suppress proliferation of malignant MDA-MB-231 cancer cells representing hard to treat triple negative breast cancer. The procedure is identical to that in example 12.
# BxPC3 [1] = assay: crystal violet assay, cellular viability, 48 hrs; details: Homo sapiens, BXPC-3
# Description: as §1
# (§2) Compounds 1, 2 and the comparative compound deferasirox were tested in their efficacy to suppress proliferation/kill several malignant cell lines of breast, pancreatic and ovarian origin (MCF7, MDA-MB-231, BxPC3 and OVCAR3). The procedure is identical to that in example 12.
# OVCAR3 = assay: crystal violet assay, cellular viability, 48 hrs; details: Homo sapiens, OVCAR-3
# Description: as §1, §2
# T47D = assay: crystal violet assay, cellular viability, 48 hrs; details: T47D (parental/control)
# Description: [The source words this procedure for another cell line and reports this cell line under the same test.] as §1, §2
# MCF7 = assay: annexin V/PI staining, cell death induction, 48 hrs; details: 500 μM
# Description: (§3) This effect seems to be based mainly on the cytostatic effect of compound 1. To define the ability to kill cells, cell death-inducing potency (cytotoxic efficacy) of DFX and compound 1 have been tested via annexin V/PI staining commonly used as a measure of apoptotic/necrotic cell death. Briefly, cells were seeded in 12-well plate at 100,000 per well, incubated with the selected compounds for 48 hours, then floating cells were spun, adherent cells trypsinized and spun as well followed by the staining with AnnexinV-FITC and PI probes. Cells were then washed with PBS and measured via Fluorescence Activated Sorter.
# Since compound 1 is an iron chelator, we have evaluated the effect of pre-loading compound 1 with iron at a 2:1 ratio and then applying it to the cells, followed by measurement of cell death using the Annexin V/PI staining as in example 4.
# BxPC3 [2] = assay: as above; details: 500 μM
# Description: as §3
# OVCAR = assay: as above; details: 500 μM
# Description: as §3
# non malignant cells MRC5 = assay: as above; details: 500 μM
# Description: as §3
# non-malignant HFP1 cells = assay: as above; details: 500 μM, 48 hrs, HFP1
# Description: as §3
# [3] = system: UPF16A leukemia cell line; assay: alamarBlue Cell Viability Reagent, 48 hrs; details: 48 hrs, UPF16A
# Description: (§4) Compound 1 and a comparative compound deferasirox (DFX) were tested in their efficacy to kill/suppress proliferation of several leukemia cells. Briefly, 10.000 cells per well were seeded in a 96-well plate on one day and the next day the tested compounds were added and incubated with the cells for 48 hrs. Cellular viability was determined as the ability to reduce the probe alamarBlue™ Cell Viability Reagent.
# UPF1H leukemia cell line [4] = assay: alamarBlue Cell Viability Reagent, 48 hrs; details: 48 hrs
# Description: as §4
# UPF4D leukemia cell line [5] = assay: alamarBlue Cell Viability Reagent, 48 hrs; details: 48 hrs, UPF4D
# Description: as §4
# UPF9T leukemia cell line [6] = assay: alamarBlue Cell Viability Reagent, 48 hrs; details: 48 hrs, UPF9T
# Description: as §4
# [7] = system: UPF16A leukemia cell line; assay: AnnexinV/PI assay, cell death induction, 48 hrs
# Description: as §3
# (§5) This effect seems to be based mainly on the cytostatic effect of compound 1. To define the ability to kill cells, cell death-inducing potency (cytotoxic efficacy) of DFX and compound 1 have been tested via annexin V/PI staining commonly used as a measure of apoptotic/necrotic cell death (see example 15). […] Compound 1 killed cancer cells with effects higher by almost 3 orders of magnitude than those of deferasirox. Such results are unprecedented and very unexpected.
# UPF1H leukemia cell line [8] = assay: AnnexinV/PI assay, cell death induction, 48 hrs
# Description: as §3, §5
# UPF4D leukemia cell line [9] = assay: AnnexinV/PI assay, cell death induction, 48 hrs
# Description: as §3, §5
# UPF9T leukemia cell line [10] = assay: AnnexinV/PI assay, cell death induction, 48 hrs
# Description: as §3, §5
# [11] = 1 μM, read-out: viable cells compared to non-treated controls
# [12] = 3 μM, read-out: viable cells compared to non-treated controls
# [13] = 30 μM, read-out: viable cells compared to non-treated controls
# [14] = 100 μM, read-out: viable cells compared to non-treated controls
# [15] = 500 μM, read-out: viable cells compared to non-treated controls
smiles,measurement,setting,value
"O=C(O)c1ccc(-n2nc(-c3ccccc3O)nc2-c2ccccc2O)cc1 [DFX, deferasirox, reference compound]",viability at 1 µM,"MCF7 cells; Homo sapiens, 1 μM, MCF7, read-out: viable cells compared to non-treated controls",104%
same,viability at 3 µM,"MCF7 cells; Homo sapiens, 3 μM, MCF7, read-out: viable cells compared to non-treated controls",76%
same,viability at 10 µM,"MCF7 cells; Homo sapiens, 10 μM, MCF7, read-out: viable cells compared to non-treated controls",56.5%
same,viability at 30 µM,"MCF7 cells; Homo sapiens, 30 μM, MCF7, read-out: viable cells compared to non-treated controls",23.9%
same,IC50,"MCF7 cells; Homo sapiens, MCF7, 48 h",10 µM
same,IC50,MCF7 cells,10.9 µM
same,viability at 1 µM,"MDA-MB-231 cells; Homo sapiens, 1 μM, MDA-MB-231, read-out: viable cells compared to non-treated controls",109%
same,viability at 3 µM,"MDA-MB-231 cells; Homo sapiens, 3 μM, MDA-MB-231, read-out: viable cells compared to non-treated controls",90.8%
same,viability at 10 µM,"MDA-MB-231 cells; Homo sapiens, 10 μM, MDA-MB-231, read-out: viable cells compared to non-treated controls",70.4%
same,viability at 30 µM,"MDA-MB-231 cells; Homo sapiens, 30 μM, MDA-MB-231, read-out: viable cells compared to non-treated controls",62.1%
same,viability at 100 µM,"MDA-MB-231 cells; Homo sapiens, 100 μM, MDA-MB-231, read-out: viable cells compared to non-treated controls",55.7%
same,viability at 300 µM,"MDA-MB-231 cells; Homo sapiens, 300 μM, MDA-MB-231, read-out: viable cells compared to non-treated controls",14.1%
same,IC50,"MDA-MB-231 cells; Homo sapiens, MDA-MB-231, 48 h",70 µM
same,IC50,MDA-MB-231 cells,70 µM
same,IC50,BxPC3 [1],22.9 µM
same,IC50,OVCAR3,19.2 µM
same,IC50,"T47D; Homo sapiens, T47D, 48 h",60.8 µM
same,IC50,T47D,60.8 µM
same,dead cells (AnnexinV/PI),MCF7,85.2 (3.3) %
same,dead cells (AnnexinV/PI),BxPC3 [2],45.8 (21.3) %
same,dead cells (AnnexinV/PI),OVCAR,59.7 (4.6) %
same,dead cells (AnnexinV/PI),non malignant cells MRC5,43.7 (7.7) %
same,dead cells (AnnexinV/PI),non-malignant HFP1 cells,35.6 (1.5) %
same,viability at 1 µM,[3]; [11],82.5%
same,viability at 3 µM,[3]; [12],61.3%
same,viability at 30 µM,[3]; [13],34.7%
same,viability at 100 µM,[3]; [14],10.6%
same,viability at 500 µM,[3]; [15],9.7%
same,IC50,"[3]; alamarBlue, read-out: IC50",7.6 µM
same,viability at 1 µM,UPF1H leukemia cell line [4]; [11],94.3%
same,viability at 3 µM,UPF1H leukemia cell line [4]; [12],88%
same,viability at 30 µM,UPF1H leukemia cell line [4]; [13],7.3%
same,viability at 100 µM,UPF1H leukemia cell line [4]; [14],13.3%
same,viability at 500 µM,UPF1H leukemia cell line [4]; [15],22.4%
same,IC50,"UPF1H leukemia cell line [4]; alamarBlue, read-out: IC50",9.6 µM
same,viability at 1 µM,UPF4D leukemia cell line [5]; [11],92.7%
same,viability at 3 µM,UPF4D leukemia cell line [5]; [12],61.9%
same,viability at 30 µM,UPF4D leukemia cell line [5]; [13],2.9%
same,viability at 100 µM,UPF4D leukemia cell line [5]; [14],4%
same,viability at 500 µM,UPF4D leukemia cell line [5]; [15],11.1%
same,IC50,"UPF4D leukemia cell line [5]; alamarBlue, read-out: IC50",4.92 µM
same,viability at 1 µM,UPF9T leukemia cell line [6]; [11],90.8%
same,viability at 3 µM,UPF9T leukemia cell line [6]; [12],81.3%
same,viability at 30 µM,UPF9T leukemia cell line [6]; [13],49.2%
same,viability at 100 µM,UPF9T leukemia cell line [6]; [14],53.3%
same,viability at 500 µM,UPF9T leukemia cell line [6]; [15],39%
same,IC50,"UPF9T leukemia cell line [6]; alamarBlue, read-out: IC50",80.2 µM
same,dead cells (AnnexinV/PI),[7]; 1 μM,13.7 (5.0) %
same,dead cells (AnnexinV/PI),[7]; 10 μM,48.4 (16.2) %
same,dead cells (AnnexinV/PI),UPF1H leukemia cell line [8]; 1 μM,9.9 (1.3) %
same,dead cells (AnnexinV/PI),UPF1H leukemia cell line [8]; 10 μM,95.8 (0.2) %
same,dead cells (AnnexinV/PI),UPF4D leukemia cell line [9]; 1 μM,16.9 (16.9) %
same,dead cells (AnnexinV/PI),UPF4D leukemia cell line [9]; 10 μM,77.3 (3.5) %
same,dead cells (AnnexinV/PI),UPF9T leukemia cell line [10]; 1 μM,13.7 (3.3) %
same,dead cells (AnnexinV/PI),UPF9T leukemia cell line [10]; 10 μM,46.6 (5.2) %
